Measurements from US20240002393A1, “SUBSTITUTED BENZO[f][l ,2,4JTRIAZOL0[4,3-a][l ,4J[…] GABA A GAMMA! POSITIVE ALLOSTERIC MODULATORS” (Hoffmann-La Roche Inc., priority 2020, published 2024).

Target: h-GABA-A α2β2γ1 (Homo sapiens (Human), UniProt P47869+Q8N1C3)
Experiment: Two-electrode voltage clamp electrophysiology in Xenopus oocytes expressing GABAA receptors
Type: cell-based
Conditions: for Efficacy (GABA)%: % modulation of GABA EC20 = 100*(Fold increase−1), compound at 30-fold Ki; for Fold increase h-GABA-A α2β2γ1 oocyte @ 30-fold Ki: GABA EC20, test compound at about 30-fold its Ki α2β2γ1, at least 3 oocytes
Description: Xenopus laevis oocytes at maturation stages V-VI were used for the expression of cloned mRNA encoding GABAA receptor subunits. Oocytes ready for RNA micro-injection were bought from Ecocyte, Castrop-Rauxel, Germany and stored in modified Barth's medium (composition in mM: NaCl 88, KCl 1, NaHCO3 2.4, HEPES 10, MgSO4 0.82, CaNO3 0.33, CaCl2 0.33, pH=7.5) at 20° C. until the experiment.
Oocytes were plated in 96-well plates for microinjection using the Roboinject automated instrument (MultiChannelSystems, Reutlingen, Germany). Approximately 50 nL of an aqueous solution containing the RNA transcripts for the subunits of the desired GABAA receptor subtype was injected into each oocyte. […] Oocytes were kept in modified Barth's medium (composition in mM: NaCl 88, KCl 1, NaHCO3 […], HEPES 10, MgSO4 0.82, CaNO3 0.33, CaCl2 0.33, pH=7.5) at 20° C. until the experiment.
Electrophysiological experiments were performed using the Roboocyte instrument (MultiChannelSystems, Reutlingen, Germany) on days 3 to 5 after the micro-injection of mRNA. During the experiment the oocytes were constantly superfused by a solution containing (in mM) NaCl 90, KCl 1, HEPES 5, MgCl2 1 CaCl2 1 (pH 7.4). Oocytes were impaled by two glass microelectrodes (resistance: 0.5-0.8 MΩ) which were filled with a solution containing KCl 1M+K-acetate 1.5 M and voltage-clamped to −80 mV. The recordings were performed at room temperature using the Roboocyte two-electrode voltage clamp system (Multichannelsystem). After an initial equilibration period of 1.5 min GABA was added for 1.5 min at a concentration evoking approximately 20% of a maximal current response (EC20). After another rest interval of 2.5 min GABA was again added evoking a response of similar amplitude and shape. […] Current traces were recorded at a digitization rate of 10 Hz during and shortly before and after the GABA application.
Each compound and concentration was tested on at least 3 oocytes. Different oocytes were used for different compound concentrations.
For the analysis, the digitized current traces of the first and second GABA response were superimposed and, if necessary, rescaled to equal maximal amplitudes. The ratio between the two responses during the time interval of test compound application was calculated point by point. The extremum of the resulting “ratio trace” was taken as the efficacy (“Fold increase”) of the compound expressed as “% modulation of GABA EC20” (100*(Fold increase−1)).

SMILES | Efficacy (GABA)% | Fold increase h-GABA-A α2β2γ1 oocyte @ 30-fold Ki
Cc1nnc2n1-c1ccc(C(F)(F)F)c(Cl)c1C(c1c(F)cccc1F)=N[C@H]2CO [Example 106, [(4R)-7-chloro-6-(2,6-difluorophenyl)-1-methyl-8-(trifluoromethyl)-4H-[1,2,4]triazlo[4,3-a][1,4]benzodiazepin-4-yl]methanol] | 121% | 2.21
C[C@@H]1N=C(c2c(F)cccc2F)c2c(ccc(Cl)c2Br)-n2c(-c3cnn(C)c3)nnc21 [Example 76, (4S)-7-bromo-8-chloro-6-(2,6-difluorophenyl)-4-methyl-1-(1-methylpyrazol-4-yl)-4H-[1,2,4]triazolo[4,3-a][1,4]benzodiazepine] | 52% | 1.52
C[C@@H]1N=C(c2c(F)cccc2F)c2c(ccc(Cl)c2Cl)-n2c(-c3cccnn3)nnc21 [Example 56, (4S)-7,8-dichloro-6-(2,6-difluorophenyl)-4-methyl-1-pyridazin-3-yl-4H-[1,2,4]triazolo[4,3-a][1,4]benzodiazepine] | 78% | 1.78
Cc1nnc2n1-c1ccc(Cl)c(Br)c1C(c1c(F)cccc1F)=N[C@H]2C [Example 80, (4S)-7-bromo-8-chloro-6-(2,6-difluorophenyl)-1,4-dimethyl-4H-[1,2,4]triazolo[4,3-a][1,4]benzodiazepine] | 59% | 1.59
C[C@@H]1N=C(c2ccccc2F)c2c(ccc(Br)c2Cl)-n2c(-c3cccnn3)nnc21 [Example 32, (4S)-8-bromo-7-chloro-6-(2-fluorophenyl)-4-methyl-1-pyridazin-3-yl-4H-[1,2,4]triazolo[4,3-a][1,4]benzodiazepine] | 105% | 2.05
C[C@@H]1N=C(c2c(F)cccc2F)c2c(ccc(Cl)c2Cl)-n2c1n[nH]c2=O [Example 64, (4S)-7,8-dichloro-6-(2,6-difluorophenyl)-4-methyl-2,4-dihydro-[1,2,4]triazolo[4,3-a][1,4]benzodiazepin-1-one] | 74% | 1.74
COC[C@@H]1N=C(c2c(F)cccc2F)c2c(ccc(Br)c2Cl)-n2c(C)nnc21 [Example 100, (4R)-8-bromo-7-chloro-6-(2,6-difluorophenyl)-4-(methoxymethyl)-1-methyl-4H-[1,2,4]triazolo[4,3-a][1,4]benzodiazepine] | 64% | 1.64
C[C@@H]1N=C(c2c(F)cccc2F)c2c(ccc(Cl)c2Cl)-n2c(-c3ccncn3)nnc21 [Example 52, (4S)-7,8-dichloro-6-(2,6-difluorophenyl)-4-methyl-1-pyrimidin-4-yl-4H-[1,2,4]triazolo[4,3-a][1,4]benzodiazepine] | 100% | 2.00
C[C@@H]1N=C(c2c(F)cccc2F)c2c(ccc(C(F)(F)F)c2Cl)-n2cnnc21 [Example 107, (4S)-7-chloro-6-(2,6-difluorophenyl)-4-methyl-8-(trifluoromethyl)-4H-[1,2,4]triazolo[4,3-a][1,4]benzodiazepine] | 147% | 2.47
C[C@@H]1N=C(c2c(F)cccc2F)c2c(ccc(Cl)c2Cl)-n2c(-c3cnn(C)c3)nnc21 [Example 53, (4S)-7,8-dichloro-6-(2,6-difluorophenyl)-4-methyl-1-(1-methylpyrazol-4-yl)-4H-[1,2,4]triazolo[4,3-a][1,4]benzodiazepine] | 32% | 1.32
C[C@@H]1N=C(c2c(F)cccc2F)c2c(ccc(Cl)c2Br)-n2c(-c3ccn(C)n3)nnc21 [Example 81, (4S)-7-bromo-8-chloro-6-(2,6-difluorophenyl)-4-methyl-1-(1-methylpyrazol-3-yl)-4H-[1,2,4]triazolo[4,3-a][1,4]benzodiazepine] | 46% | 1.46
C[C@@H]1N=C(c2c(F)cccc2F)c2c(ccc(C(F)(F)F)c2Cl)-n2c(CO)nnc21 [Example 103, [(4S)-7-chloro-6-(2,6-difluorophenyl)-4-methyl-8-(trifluoromethyl)-4H-[1,2,4]triazolo[4,3-a][1,4]benzodiazepin-1-yl]methanol] | 123% | 2.23
Cc1nnc2n1-c1ccc(C(C)(F)F)c(Cl)c1C(c1c(F)cccc1F)=N[C@H]2C [Example 93, (4S)-7-chloro-8-(1,1-difluoroethyl)-6-(2,6-difluorophenyl)-1,4-dimethyl-4H-[1,2,4]triazolo[4,3-a][1,4]benzodiazepine] | 169% | 2.69
Cc1nnc2n1-c1ccc(C(F)(F)F)c(Cl)c1C(c1c(F)cccc1F)=N[C@H]2C [Example 92, (4S)-7-chloro-6-(2,6-difluorophenyl)-1,4-dimethyl-8-(trifluoromethyl)-4H-[1,2,4]triazolo[4,3-a][1,4]benzodiazepine] | 92% | 1.92
OC1N=C(c2ccccc2F)c2c(ccc(Br)c2Cl)-n2c(-c3cccnn3)nnc21 (stereo not shown) [Example 35, 8-bromo-7-chloro-6-(2-fluorophenyl)-1-pyridazin-3-yl-4H-[1,2,4]triazolo[4,3-a][1,4]benzodiazepin-4-ol] | 108% | 2.08
C[C@@H]1N=C(c2c(F)cccc2F)c2c(ccc(Cl)c2Br)-n2c(-c3ccncn3)nnc21 [Example 74, (4S)-7-bromo-8-chloro-6-(2,6-difluorophenyl)-4-methyl-1-pyrimidin-4-yl-4H-[1,2,4]triazolo[4,3-a][1,4]benzodiazepine] | 62% | 1.62
Cc1nnc2n1-c1ccc(Br)c(Cl)c1C(c1ncccc1F)=N[C@H]2C [Example 85, (4S)-8-bromo-7-chloro-6-(3-fluoro-2-pyridyl)-1,4-dimethyl-4H-[1,2,4]triazolo[4,3-a][1,4]benzodiazepine] | 114% | 2.14
Cc1nnc2n1-c1ccc(Cl)c(Cl)c1C(c1c(F)cccc1F)=N[C@H]2C [Example 82, (4S)-7,8-dichloro-6-(2,6-difluorophenyl)-1,4-dimethyl-4H-[1,2,4]triazolo[4,3-a][1,4]benzodiazepine] | 45% | 1.45
C[C@@H]1N=C(c2ncccc2F)c2c(ccc(Cl)c2Cl)-n2c(-c3ccncn3)nnc21 [Example 66, (4S)-7,8-dichloro-6-(3-fluoro-2-pyridyl)-4-methyl-1-pyrimidin-4-yl-4H-[1,2,4]triazolo[4,3-a][1,4]benzodiazepine] | 143% | 2.43
Cc1nnc2n1-c1ccc(C(F)F)c(Cl)c1C(c1c(F)cccc1F)=N[C@H]2C [Example 99, (4S)-7-chloro-8-(difluoromethyl)-6-(2,6-difluorophenyl)-1,4-dimethyl-4H-[1,2,4]triazolo[4,3-a][1,4]benzodiazepine] | 135% | 2.35
Cc1ccc(-c2nnc3n2-c2ccc(Cl)c(Cl)c2C(c2c(F)cccc2F)=N[C@H]3C)nn1 [Example 86, (4S)-7,8-dichloro-6-(2,6-difluorophenyl)-4-methyl-1-(6-methylpyridazin-3-yl)-4H-[1,2,4]triazolo[4,3-a][1,4]benzodiazepine] | 80% | 1.80
C[C@@H]1N=C(c2ccccc2F)c2c(ccc(Br)c2Cl)-n2cnnc21 [Example 30, (4S)-8-bromo-7-chloro-6-(2-fluorophenyl)-4-methyl-4H-[1,2,4]triazolo[4,3-a][1,4]benzodiazepine] | 57% | 1.57
C[C@@H]1N=C(c2ncccc2F)c2c(ccc(Cl)c2Cl)-n2c(-c3cccnn3)nnc21 [Example 63, (4S)-7,8-dichloro-6-(3-fluoro-2-pyridyl)-4-methyl-1-pyridazin-3-yl-4H-[1,2,4]triazolo[4,3-a][1,4]benzodiazepine] | 891% | 9.91
